{"source": "paper PMC7827406", "about": "“Structure–Activity Relationship (SAR) Study of Spautin-1 to Entail the Discovery of Novel NEK4 Inhibitors” (International Journal of Molecular Sciences, 2021)", "experiment_in_all_cases": "biochemical", "design_in_all_cases": "Eurofins KinaseProfiler full panel at Km ATP, residual kinase activity (%) relative to DMSO", "key": {"Aurora-C(h)": {"target": "T1, Aurora-C(h) (Homo sapiens, UniProt Q9UQB9)", "T1 construct": "gene AURKC", "T1 sequence (Q9UQB9 1-309)": "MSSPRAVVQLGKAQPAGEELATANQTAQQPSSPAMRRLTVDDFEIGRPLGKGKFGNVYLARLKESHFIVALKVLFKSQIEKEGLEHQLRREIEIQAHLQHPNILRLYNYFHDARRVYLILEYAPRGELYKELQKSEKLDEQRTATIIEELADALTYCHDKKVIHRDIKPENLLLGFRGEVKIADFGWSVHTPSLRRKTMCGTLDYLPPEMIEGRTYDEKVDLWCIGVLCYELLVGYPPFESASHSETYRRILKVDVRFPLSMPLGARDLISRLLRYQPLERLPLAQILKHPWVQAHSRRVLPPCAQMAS", "in_short": "(§1)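 Radiometric kinase activity assays were run with ATP at Km and compounds at 10 µM, and remaining activity (%) was reported. A separate competitive binding screen measured DNA-tagged kinase displaced from immobilized active-site ligands by qPCR, giving percent kinase still bound at 10 µM compound in DMSO.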"}, "CK1δ(h)": {"target": "T2, CK1δ(h) (Homo sapiens, UniProt P48730)", "T2 construct": "gene CSNK1D", "T2 sequence (P48730 whole entry)": "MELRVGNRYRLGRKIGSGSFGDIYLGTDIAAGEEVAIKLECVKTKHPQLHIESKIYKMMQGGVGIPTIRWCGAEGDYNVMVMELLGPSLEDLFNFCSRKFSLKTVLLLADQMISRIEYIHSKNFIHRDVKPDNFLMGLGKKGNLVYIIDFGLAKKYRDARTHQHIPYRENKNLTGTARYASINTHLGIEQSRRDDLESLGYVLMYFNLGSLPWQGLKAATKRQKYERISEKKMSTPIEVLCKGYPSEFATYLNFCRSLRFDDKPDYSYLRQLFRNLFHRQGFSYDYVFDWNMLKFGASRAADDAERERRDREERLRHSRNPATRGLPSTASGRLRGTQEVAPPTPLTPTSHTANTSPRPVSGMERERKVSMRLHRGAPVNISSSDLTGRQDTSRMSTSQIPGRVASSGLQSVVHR", "in_short": "as §1"}, "MSK1(h)": {"target": "T3, MSK1(h) (Homo sapiens, UniProt O75582)", "T3 construct": "gene RPS6KA5", "T3 sequence (O75582 whole entry)": "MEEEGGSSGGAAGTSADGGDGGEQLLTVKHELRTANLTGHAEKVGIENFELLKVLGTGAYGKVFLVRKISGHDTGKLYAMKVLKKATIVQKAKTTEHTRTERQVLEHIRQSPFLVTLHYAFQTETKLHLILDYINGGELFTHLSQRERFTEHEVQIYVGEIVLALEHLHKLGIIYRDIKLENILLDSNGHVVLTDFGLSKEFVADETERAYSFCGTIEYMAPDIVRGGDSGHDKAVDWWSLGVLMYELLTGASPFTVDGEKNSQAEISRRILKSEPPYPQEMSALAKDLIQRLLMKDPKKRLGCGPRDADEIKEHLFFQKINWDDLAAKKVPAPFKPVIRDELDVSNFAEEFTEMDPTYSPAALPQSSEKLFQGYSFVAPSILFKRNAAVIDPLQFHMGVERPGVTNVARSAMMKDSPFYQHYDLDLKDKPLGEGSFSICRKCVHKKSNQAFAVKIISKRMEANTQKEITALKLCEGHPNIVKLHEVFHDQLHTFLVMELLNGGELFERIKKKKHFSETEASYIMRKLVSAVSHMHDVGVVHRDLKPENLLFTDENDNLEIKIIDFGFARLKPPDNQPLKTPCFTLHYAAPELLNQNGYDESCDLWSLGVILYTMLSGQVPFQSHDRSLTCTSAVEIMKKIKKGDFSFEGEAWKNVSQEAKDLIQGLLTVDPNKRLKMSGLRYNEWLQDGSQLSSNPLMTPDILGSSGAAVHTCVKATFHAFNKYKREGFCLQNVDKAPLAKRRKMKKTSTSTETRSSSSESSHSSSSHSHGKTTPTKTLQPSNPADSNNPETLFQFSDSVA", "in_short": "as §1"}, "LRRK2(h)": {"target": "LRRK2(h) (Homo sapiens, UniProt Q5S007)", "sequence (Q5S007 whole entry)": "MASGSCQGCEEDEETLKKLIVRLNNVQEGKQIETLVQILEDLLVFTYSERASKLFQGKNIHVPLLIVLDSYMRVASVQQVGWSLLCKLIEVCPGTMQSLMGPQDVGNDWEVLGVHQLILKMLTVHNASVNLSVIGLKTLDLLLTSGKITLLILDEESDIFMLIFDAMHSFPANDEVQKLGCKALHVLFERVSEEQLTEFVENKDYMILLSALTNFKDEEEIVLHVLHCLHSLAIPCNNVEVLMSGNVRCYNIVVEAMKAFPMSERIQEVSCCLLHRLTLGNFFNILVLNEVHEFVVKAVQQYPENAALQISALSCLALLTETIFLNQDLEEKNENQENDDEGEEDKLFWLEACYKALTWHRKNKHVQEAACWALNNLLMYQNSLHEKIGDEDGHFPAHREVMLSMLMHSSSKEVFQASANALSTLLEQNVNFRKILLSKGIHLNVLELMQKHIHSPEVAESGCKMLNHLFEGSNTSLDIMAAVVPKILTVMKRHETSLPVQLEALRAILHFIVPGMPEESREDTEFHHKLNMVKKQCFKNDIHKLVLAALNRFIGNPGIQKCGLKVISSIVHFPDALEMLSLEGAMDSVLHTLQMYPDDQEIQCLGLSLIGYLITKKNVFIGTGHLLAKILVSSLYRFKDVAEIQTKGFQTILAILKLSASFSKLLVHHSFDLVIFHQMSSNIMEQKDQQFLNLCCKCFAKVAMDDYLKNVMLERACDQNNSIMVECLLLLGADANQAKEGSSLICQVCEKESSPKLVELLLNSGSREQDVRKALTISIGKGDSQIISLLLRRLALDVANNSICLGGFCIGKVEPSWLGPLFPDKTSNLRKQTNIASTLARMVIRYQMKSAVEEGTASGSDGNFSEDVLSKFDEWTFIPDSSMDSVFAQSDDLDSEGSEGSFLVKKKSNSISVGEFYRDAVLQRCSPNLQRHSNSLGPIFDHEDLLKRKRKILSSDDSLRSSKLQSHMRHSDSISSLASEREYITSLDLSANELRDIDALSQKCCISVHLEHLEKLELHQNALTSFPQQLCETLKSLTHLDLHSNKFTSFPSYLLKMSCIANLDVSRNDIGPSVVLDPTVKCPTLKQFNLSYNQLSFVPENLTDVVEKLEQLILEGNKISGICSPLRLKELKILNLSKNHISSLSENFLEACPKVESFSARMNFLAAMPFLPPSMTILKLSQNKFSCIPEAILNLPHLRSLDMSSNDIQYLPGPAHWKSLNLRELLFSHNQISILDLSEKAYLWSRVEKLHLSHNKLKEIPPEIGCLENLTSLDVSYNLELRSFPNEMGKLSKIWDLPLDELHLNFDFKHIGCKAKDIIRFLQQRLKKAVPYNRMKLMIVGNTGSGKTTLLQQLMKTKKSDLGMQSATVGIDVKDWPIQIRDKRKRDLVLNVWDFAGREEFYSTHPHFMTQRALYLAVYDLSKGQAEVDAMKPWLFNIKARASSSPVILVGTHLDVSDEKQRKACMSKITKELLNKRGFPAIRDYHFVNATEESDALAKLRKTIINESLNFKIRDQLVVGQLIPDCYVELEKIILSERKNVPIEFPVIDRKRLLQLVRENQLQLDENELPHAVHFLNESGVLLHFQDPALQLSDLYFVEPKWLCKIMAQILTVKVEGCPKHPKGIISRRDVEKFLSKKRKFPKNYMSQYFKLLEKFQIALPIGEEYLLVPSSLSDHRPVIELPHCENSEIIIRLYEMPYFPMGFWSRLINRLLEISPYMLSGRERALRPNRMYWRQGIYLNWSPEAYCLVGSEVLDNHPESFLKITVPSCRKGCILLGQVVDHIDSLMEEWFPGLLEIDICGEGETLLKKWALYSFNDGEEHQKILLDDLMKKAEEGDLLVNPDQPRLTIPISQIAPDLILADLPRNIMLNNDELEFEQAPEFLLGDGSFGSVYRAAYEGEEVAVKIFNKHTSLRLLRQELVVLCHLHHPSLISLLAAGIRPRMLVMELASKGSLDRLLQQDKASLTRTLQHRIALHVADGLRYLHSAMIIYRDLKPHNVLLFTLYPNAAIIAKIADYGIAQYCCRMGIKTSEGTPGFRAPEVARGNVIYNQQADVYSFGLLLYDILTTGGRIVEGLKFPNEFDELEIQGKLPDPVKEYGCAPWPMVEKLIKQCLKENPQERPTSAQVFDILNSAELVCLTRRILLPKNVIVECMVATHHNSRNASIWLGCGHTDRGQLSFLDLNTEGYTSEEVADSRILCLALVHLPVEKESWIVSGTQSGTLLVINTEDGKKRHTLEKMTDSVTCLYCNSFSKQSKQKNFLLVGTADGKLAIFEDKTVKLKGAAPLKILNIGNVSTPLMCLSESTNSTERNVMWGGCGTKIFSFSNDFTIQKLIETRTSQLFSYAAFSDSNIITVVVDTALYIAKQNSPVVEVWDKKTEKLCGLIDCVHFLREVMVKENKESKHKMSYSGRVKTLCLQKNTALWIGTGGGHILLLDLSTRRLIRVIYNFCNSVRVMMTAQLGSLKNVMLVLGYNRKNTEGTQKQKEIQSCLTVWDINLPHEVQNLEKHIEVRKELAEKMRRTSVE", "in_short": "as §1"}, "ZAP-70(h)": {"target": "T4, ZAP-70(h) (Homo sapiens, UniProt P43403)", "T4 construct": "gene ZAP70", "T4 sequence (P43403 1-619)": "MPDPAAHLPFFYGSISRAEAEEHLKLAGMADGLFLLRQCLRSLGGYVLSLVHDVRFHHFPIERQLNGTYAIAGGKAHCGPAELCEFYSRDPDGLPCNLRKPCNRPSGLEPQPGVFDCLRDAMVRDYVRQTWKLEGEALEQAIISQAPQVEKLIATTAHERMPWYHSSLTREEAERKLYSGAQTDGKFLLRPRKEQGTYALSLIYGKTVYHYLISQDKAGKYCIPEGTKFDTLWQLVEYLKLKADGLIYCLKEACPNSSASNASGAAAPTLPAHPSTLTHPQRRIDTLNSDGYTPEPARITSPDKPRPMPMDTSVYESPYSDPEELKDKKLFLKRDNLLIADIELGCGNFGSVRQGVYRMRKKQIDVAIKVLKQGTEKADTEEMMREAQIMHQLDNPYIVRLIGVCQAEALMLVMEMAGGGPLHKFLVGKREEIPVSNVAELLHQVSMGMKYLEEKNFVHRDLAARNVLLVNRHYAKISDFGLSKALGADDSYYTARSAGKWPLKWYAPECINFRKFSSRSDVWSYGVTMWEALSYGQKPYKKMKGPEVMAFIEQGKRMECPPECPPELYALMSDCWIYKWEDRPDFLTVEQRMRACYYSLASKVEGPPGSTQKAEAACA", "in_short": "as §1"}, "IKKα(h)": {"target": "T5, IKKα(h) (Homo sapiens, UniProt O15111)", "T5 construct": "gene CHUK", "T5 sequence (O15111 1-745)": "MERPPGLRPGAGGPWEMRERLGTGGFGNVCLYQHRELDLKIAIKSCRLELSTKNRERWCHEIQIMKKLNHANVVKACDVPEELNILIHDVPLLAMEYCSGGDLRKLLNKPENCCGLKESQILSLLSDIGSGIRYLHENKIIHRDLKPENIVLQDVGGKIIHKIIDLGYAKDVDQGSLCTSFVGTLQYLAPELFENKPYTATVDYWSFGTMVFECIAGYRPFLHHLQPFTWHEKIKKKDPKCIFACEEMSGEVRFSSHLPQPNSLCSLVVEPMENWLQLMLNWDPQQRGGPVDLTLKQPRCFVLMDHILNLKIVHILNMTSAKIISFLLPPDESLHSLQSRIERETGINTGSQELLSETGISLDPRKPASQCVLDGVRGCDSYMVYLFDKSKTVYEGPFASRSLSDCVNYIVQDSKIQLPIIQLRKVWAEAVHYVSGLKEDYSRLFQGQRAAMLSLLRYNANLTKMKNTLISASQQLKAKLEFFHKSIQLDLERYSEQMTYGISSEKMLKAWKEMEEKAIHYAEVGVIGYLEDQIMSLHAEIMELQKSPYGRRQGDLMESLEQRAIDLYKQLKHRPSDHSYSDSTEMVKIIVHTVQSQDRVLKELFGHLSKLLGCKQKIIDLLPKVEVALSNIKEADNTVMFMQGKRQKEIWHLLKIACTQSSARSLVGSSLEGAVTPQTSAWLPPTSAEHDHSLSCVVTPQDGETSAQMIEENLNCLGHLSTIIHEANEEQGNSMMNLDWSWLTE", "in_short": "as §1"}, "Tie2 (h)": {"target": "T6, Tie2 (h) (Homo sapiens, UniProt Q02763)", "T6 construct": "gene TEK", "T6 sequence (Q02763 whole entry)": "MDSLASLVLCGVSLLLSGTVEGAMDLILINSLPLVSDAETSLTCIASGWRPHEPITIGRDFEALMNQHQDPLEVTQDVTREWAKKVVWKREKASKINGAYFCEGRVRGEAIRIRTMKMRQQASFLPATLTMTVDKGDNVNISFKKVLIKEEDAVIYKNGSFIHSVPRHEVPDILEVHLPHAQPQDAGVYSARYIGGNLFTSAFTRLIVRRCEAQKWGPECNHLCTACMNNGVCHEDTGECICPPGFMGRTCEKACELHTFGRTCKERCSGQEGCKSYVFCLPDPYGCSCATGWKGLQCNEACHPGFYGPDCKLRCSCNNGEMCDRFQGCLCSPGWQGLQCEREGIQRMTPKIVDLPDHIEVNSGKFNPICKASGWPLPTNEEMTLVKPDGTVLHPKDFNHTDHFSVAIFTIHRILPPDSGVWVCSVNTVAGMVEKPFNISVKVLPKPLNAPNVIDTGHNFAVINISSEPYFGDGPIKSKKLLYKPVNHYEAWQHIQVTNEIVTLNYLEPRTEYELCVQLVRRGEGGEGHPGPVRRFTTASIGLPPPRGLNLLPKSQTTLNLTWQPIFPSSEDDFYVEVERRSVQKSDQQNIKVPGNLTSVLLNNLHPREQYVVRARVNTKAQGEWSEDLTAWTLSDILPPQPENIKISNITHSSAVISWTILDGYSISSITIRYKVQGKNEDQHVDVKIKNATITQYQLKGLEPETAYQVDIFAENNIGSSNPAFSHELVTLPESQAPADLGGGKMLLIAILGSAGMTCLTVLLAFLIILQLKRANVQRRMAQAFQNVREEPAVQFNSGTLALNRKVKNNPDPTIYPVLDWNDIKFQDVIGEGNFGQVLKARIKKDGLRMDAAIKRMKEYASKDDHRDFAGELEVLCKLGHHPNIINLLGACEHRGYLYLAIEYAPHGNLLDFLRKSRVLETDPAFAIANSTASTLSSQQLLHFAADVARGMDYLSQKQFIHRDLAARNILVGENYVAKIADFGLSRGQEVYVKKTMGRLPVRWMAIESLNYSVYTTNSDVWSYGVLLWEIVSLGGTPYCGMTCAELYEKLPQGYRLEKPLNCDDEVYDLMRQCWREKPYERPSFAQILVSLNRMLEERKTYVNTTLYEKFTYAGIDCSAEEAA", "in_short": "as §1"}, "[1]": {"conditions": "read-out: Residual activity (%) 5at"}, "[2]": {"conditions": "read-out: Residual activity (%) 5as"}, "[3]": {"conditions": "read-out: Residual activity (%) 5ay"}, "[4]": {"conditions": "read-out: Residual activity (%) Spautin-1 5aa"}}, "note": "Read-outs that look alike come from different tables or passages of the source.", "data": [{"smiles": "Fc1ccc2ncnc(NCCc3ccc(Cl)cc3)c2c1", "note": "[5at, N-[2-(4-Chlorophenyl)Ethyl]-6-Fluoro-4-Quinazolinamine]", "values": [{"measurement": "remaining activity at 10 µM", "setting": "Aurora-C(h); [1]", "result": 118, "unit": "%"}, {"measurement": "remaining activity at 10 µM", "setting": "CK1δ(h); [1]", "result": 80, "unit": "%"}, {"measurement": "remaining activity at 10 µM", "setting": "MSK1(h); [1]", "result": 79, "unit": "%"}, {"measurement": "remaining activity at 10 µM", "setting": "LRRK2(h); [1]", "result": 101, "unit": "%"}, {"measurement": "remaining activity at 10 µM", "setting": "ZAP-70(h); [1]", "result": 130, "unit": "%"}, {"measurement": "remaining activity at 10 µM", "setting": "IKKα(h); [1]", "result": 91, "unit": "%"}, {"measurement": "remaining activity at 10 µM", "setting": "Tie2 (h); [1]", "result": 75, "unit": "%"}]}, {"smiles": "Fc1ccc(CCNc2ncnc3ccc(F)cc23)cc1", "note": "[5as, 6-Fluoro-N-[2-(4-Fluorophenyl)Ethyl]-4-Quinazolinamine]", "values": [{"measurement": "remaining activity at 10 µM", "setting": "Aurora-C(h); [2]", "result": 102, "unit": "%"}, {"measurement": "remaining activity at 10 µM", "setting": "CK1δ(h); [2]", "result": 80, "unit": "%"}, {"measurement": "remaining activity at 10 µM", "setting": "MSK1(h); [2]", "result": 70, "unit": "%"}, {"measurement": "remaining activity at 10 µM", "setting": "LRRK2(h); [2]", "result": 91, "unit": "%"}, {"measurement": "remaining activity at 10 µM", "setting": "ZAP-70(h); [2]", "result": 146, "unit": "%"}, {"measurement": "remaining activity at 10 µM", "setting": "IKKα(h); [2]", "result": 100, "unit": "%"}, {"measurement": "remaining activity at 10 µM", "setting": "Tie2 (h); [2]", "result": 92, "unit": "%"}]}, {"smiles": "COc1ccc2ncnc(Nc3cccc(F)c3)c2c1", "note": "[5ay, N-(3-Fluorophenyl)-6-Methoxy-4-Quinazolinamine]", "values": [{"measurement": "remaining activity at 10 µM", "setting": "Aurora-C(h); [3]", "result": 106, "unit": "%"}, {"measurement": "remaining activity at 10 µM", "setting": "CK1δ(h); [3]", "result": 86, "unit": "%"}, {"measurement": "remaining activity at 10 µM", "setting": "MSK1(h); [3]", "result": 74, "unit": "%"}, {"measurement": "remaining activity at 10 µM", "setting": "LRRK2(h); [3]", "result": 44, "unit": "%"}, {"measurement": "remaining activity at 10 µM", "setting": "ZAP-70(h); [3]", "result": 113, "unit": "%"}, {"measurement": "remaining activity at 10 µM", "setting": "IKKα(h); [3]", "result": 86, "unit": "%"}, {"measurement": "remaining activity at 10 µM", "setting": "Tie2 (h); [3]", "result": 94, "unit": "%"}]}, {"smiles": "Fc1ccc(CNc2ncnc3ccc(F)cc23)cc1", "note": "[5aa, 6-Fluoro-N-(4-fluorobenzyl)-4-Quinazolinamine]", "values": [{"measurement": "remaining activity at 10 µM", "setting": "Aurora-C(h); [4]", "result": 120, "unit": "%"}, {"measurement": "remaining activity at 10 µM", "setting": "CK1δ(h); [4]", "result": 74, "unit": "%"}, {"measurement": "remaining activity at 10 µM", "setting": "MSK1(h); [4]", "result": 90, "unit": "%"}, {"measurement": "remaining activity at 10 µM", "setting": "LRRK2(h); [4]", "result": 91, "unit": "%"}, {"measurement": "remaining activity at 10 µM", "setting": "ZAP-70(h); [4]", "result": 146, "unit": "%"}, {"measurement": "remaining activity at 10 µM", "setting": "IKKα(h); [4]", "result": 72, "unit": "%"}, {"measurement": "remaining activity at 10 µM", "setting": "Tie2 (h); [4]", "result": 104, "unit": "%"}]}]}
